# Structures can show the parent of a compound that is named as a salt.
# Key:
# [1] = tested on: primary human neutrophils; assay: Neutrophil transmigration to chemoattractant or sample in 96-well co-culture, counted by flow cytometry; assay type: cell-based; conditions: for number of counted transmigrated neutrophils versus chemoattractant dose: 3 healthy donors, 16 hours, two-way ANOVA p<0.0001
# [2] = Sodium fluorescein permeability across epithelial-endothelial co-culture; assay type: in vitro ADME; conditions: human
# HUVEC = assay: Tolerance of HUVEC to puromycin in routine culture; assay type: cell-based, human; conditions: long time periods; unpublished observation
# From the text: HUVEC maintenance in T-75 flasks. Primary Human Umbilical Vein Endothelial Cells were employed from ATCC (ATCC® PCS-100-013™) and expanded according to manufacturer instructions in Vascular Cell Basal Medium (ATCC® PCS-100-030™) supplemented with Endothelial Cell Growth Kit-VEGF (ATCC® PCS-100-041™) with added Penicillin-Streptomycin (Gibco™ 15140148) diluted 1:100 v:v. HUVECs were transduced to constitutively express RFP. […] Cells were passaged at 60-80% confluence according to manufacturer instructions, counted with Nexcelcom Cellometer Auto T4 Bright Field Cell Counter (Nexcelcom Bioscience) using Trypan Blue viability stain, and used below the passage 10 since expanding from ATCC.
# Lentiviral transduction. H441 cells and HUVECs were transduced with lentivirus to constitutively express GFP and RFP, respectively. H441 cells were seeded in T-75 flasks at 0.75e6 cells/75 cm^2 and allowed to attach overnight. Then H441 cells were inoculated with GFP gene-bearing lentivirus with puromycin resistance (Brand, product #). Lentivirus (8 TU/cell) was suspended in H441 routine culture media with the addition of transfection reagent polybrene ([…]). The cells were inoculated overnight and then allowed to recover in routine cell culture media for 72 hours with media changes every 48 hours. […]
# [3] = tested on: endothelium of H441-HUVEC co-culture; assay: IL-8 on the endothelial side of the H441/HUVEC co-culture (ELISA); assay type: cell-based, human; conditions: 24-hour exposure on the epithelial side
# Method: Then, IL-8 produced on the endothelial side was measured by ELISA (R&D Systems). […] Statistics were performed in GraphPad Prism 9.
# Cytokine quantitation. Cell culture supernatants were collected at specified intervals. IL-6 and IL-8 were quantified with ELISA assays according to manufacturer instructions (Human IL-6 DuoSet ELISA, R&D Systems DY206-05; Human IL-8/CXCL8 DuoSet ELISA, R&D Systems, DY208-05; DuoSet ELISA Ancillary Reagent Kit 2, R&D Systems; DY008.
# [4] = tested on: endothelium of H441-HUVEC co-culture; assay: Endothelial von Willebrand factor release after epithelial exposure; assay type: cell-based, human; conditions: epithelial side exposed for 10 minutes
# Method: Staining and imaging. All stains used reagents from ThermoFisher's Image-iT™ Fixation/Permeabilization Kit (R37602) for washing, fixing, blocking, and permeabilization. For all stains, inserts were cut out and fixed on glass slides for 10 minutes at 37° C. For stains requiring permeabilization, the inserts were incubated with 0.5% Triton X (ImageIT kit) for 5 minutes at 37° C. All inserts were blocked for 1 hour at 37° C., counterstained with DAPI (1:1000 in PBS for 5 minutes) and mounted between two coverslips with ProLong™ Diamond Antifade Mountant (Invitrogen). F-actin. After fixation, permeabilization, and blocking, inserts were incubated for 1 hour at 37° C. in Alexa Fluor™ 647 Phalloidin (Invitrogen) diluted 1:20 from stock solution in 1% BSA (Image-iT™). ZO-1/e-cadherin co-stain. After fixation, permeabilization, and blocking, the primary antibodies (ZO-1 Rabbit anti-human polyclonal antibody, ThermoFisher 61-7300, 1:200; e-cadherin Mouse anti-human monoclonal antibody, ThermoFisher 13-1700, 1:2000) were suspended together in 1% BSA (Image-It Kit) and co-incubated with the inserts for 2 hours at 37° C. The secondary antibodies (Goat anti-Rabbit IgG, Alexa Fluor 405, Abcam ab 175665, 1:200; Goat anti-mouse IgG, Alexa Fluor 647, ThermoFisher A32728, 1:500) were suspended in 1% BSA and incubated with the filters for 2 hours at 37° C. […]
compound,measurement,setting,value
"CCCCC/C=C\C[C@@H](O)/C=C/C=C/C=C\[C@@H](O)CCCC(=O)O [LTB4, leukotriene B4]",number of counted transmigrated neutrophils versus chemoattractant dose,[1],effect of chemoattractant dose
"O=C1OC2(c3ccc(O)cc3Oc3cc(O)ccc32)c2ccccc21 [NaFL, Fluorescein sodium salt]","Papp at 2 h, 30 µM","[2]; H441/HUVEC co-culture at ALI, S.D. 1.63e-5 cm/s, 95% CI 1.53e-6-1.25e-5 cm/s",7.04 ×10⁻⁶ cm/s
same,"Papp at 3 h, 30 µM","[2]; control, no exposure, at ALI, over a 3-hour period, n=4, read-out: permeability of the control bilayer co-culture",7.04 ×10⁻⁶ cm/s
COc1ccc(C[C@H](N)C(=O)N[C@H]2[C@@H](O)[C@H](n3cnc4c(N(C)C)ncnc43)O[C@@H]2CO)cc1 [puromycin],tolerance by HUVEC in routine culture medium,HUVEC,did not tolerate it well for long time periods
polyinosinic:polycytidylic acid [poly(I:C)],endothelial release of IL-8,[3],weakly dose-dependent
same,endothelial von Willebrand factor (VWF) exocytosis,[4],immediately exocytosed von Willebrand factor
"IL-8: recombinant human protein IL-8 (HEK-expressed, activity tested), chemoattractant",number of counted transmigrated neutrophils versus chemoattractant dose,[1],effect of chemoattractant dose
same,neutrophil transmigration numbers versus concentration,[1]; 18 hour transmigration time,increase
